Assay results published in ChEMBL document CHEMBL4196007, “Design, synthesis and biological evaluation of novel 4-aminoquinazolines as dual target inhibitors of EGFR-PI3Kα” (Eur J Med Chem, 2018).
pIC50: −log10 of the molar value. Active and inactive are the calls of the source. The rule behind the calls is not given here.

How the values were obtained:
[1] = tested on: BT-549; test: Inhibition of colony formation in human BT549 cells after 2 weeks by crystal violet staining-based assay; format: functional, cell-based
[2] = tested on: BT-549; test: Cell cycle arrest in human BT549 cells assessed as accumulation of cells at G2 phase at 1 uM after 24 hrs by propidium iodide staining-based flow cytometric analysis (reference value: 18.96%); format: functional
[3] = tested on: SNU-638; test: Cytotoxicity against human SNU638 cells after 72 hrs by SRB assay; format: functional, cell-based; conditions: SNU-638, 72 h
[4] = tested on: BT-549; test: Cell cycle arrest in human BT549 cells assessed as accumulation of cells at S phase at 1 uM after 24 hrs by propidium iodide staining-based flow cytometric analysis (reference value: 25.10%); format: functional
[5] = tested on: BT-549; test: Induction of apoptosis in human BT549 cells assessed as early apoptotic cells at 1 uM by Annexin V-FITC/propidium iodide staining-based flow cytometric analysis relative to control; format: functional
[6] = tested on: BT-549; test: Induction of apoptosis in human BT549 cells assessed as early apoptotic cells at 2.5 uM by Annexin V-FITC/propidium iodide staining-based flow cytometric analysis relative to control; format: functional
[7] = tested on: BT-549; test: Cell cycle arrest in human BT549 cells assessed as accumulation of cells at S phase at 5 uM after 24 hrs by propidium iodide staining-based flow cytometric analysis (reference value: 25.10%); format: functional
[8] = tested on: BT-549; test: Cell cycle arrest in human BT549 cells assessed as accumulation of cells at G1 phase at 1 uM after 24 hrs by propidium iodide staining-based flow cytometric analysis (reference value: 55.93%); format: functional
[9] = tested on: BT-549; test: Cell cycle arrest in human BT549 cells assessed as accumulation of cells at G1 phase at 5 uM after 24 hrs by propidium iodide staining-based flow cytometric analysis (reference value: 55.93%); format: functional
[10] = tested on: BT-549; test: Inhibition of colony formation in human BT549 cells assessed as colony formation rate at 5 uM after 2 weeks by crystal violet staining-based assay relative to control; format: functional; design: scale not given: the % may be the effect or the level left
[11] = tested on: A549; test: Cytotoxicity against human A549 cells after 72 hrs by SRB assay; format: functional, cell-based; conditions: A549, 72 h
[12] = tested on: BT-549; test: Induction of apoptosis in human BT549 cells assessed as early apoptotic cells at 5 uM by Annexin V-FITC/propidium iodide staining-based flow cytometric analysis relative to control; format: functional
[13] = tested on: HCT-116; test: Cytotoxicity against human HCT116 cells after 72 hrs by SRB assay; format: functional, cell-based; conditions: HCT-116, 72 h
[14] = tested on: BT-549; test: Induction of apoptosis in human BT549 cells assessed as chromatin condensation at 1 to 5 uM after 24 hrs by DAPI staining-based fluorescence microscopic analysis; format: functional, cell-based
[15] = tested on: BT-549; test: Induction of apoptosis in human BT549 cells assessed as late apoptotic cells at 1 uM by Annexin V-FITC/propidium iodide staining-based flow cytometric analysis relative to control; format: functional
[16] = molecular target: T1, Phosphatidylinositol 4,5-bisphosphate 3-kinase catalytic subunit delta isoform (Homo sapiens, UniProt O00329); test: Inhibition of PI3K p110delta (unknown origin) using PIP2 as substrate by ELISA
T1 sequence (O00329 whole entry): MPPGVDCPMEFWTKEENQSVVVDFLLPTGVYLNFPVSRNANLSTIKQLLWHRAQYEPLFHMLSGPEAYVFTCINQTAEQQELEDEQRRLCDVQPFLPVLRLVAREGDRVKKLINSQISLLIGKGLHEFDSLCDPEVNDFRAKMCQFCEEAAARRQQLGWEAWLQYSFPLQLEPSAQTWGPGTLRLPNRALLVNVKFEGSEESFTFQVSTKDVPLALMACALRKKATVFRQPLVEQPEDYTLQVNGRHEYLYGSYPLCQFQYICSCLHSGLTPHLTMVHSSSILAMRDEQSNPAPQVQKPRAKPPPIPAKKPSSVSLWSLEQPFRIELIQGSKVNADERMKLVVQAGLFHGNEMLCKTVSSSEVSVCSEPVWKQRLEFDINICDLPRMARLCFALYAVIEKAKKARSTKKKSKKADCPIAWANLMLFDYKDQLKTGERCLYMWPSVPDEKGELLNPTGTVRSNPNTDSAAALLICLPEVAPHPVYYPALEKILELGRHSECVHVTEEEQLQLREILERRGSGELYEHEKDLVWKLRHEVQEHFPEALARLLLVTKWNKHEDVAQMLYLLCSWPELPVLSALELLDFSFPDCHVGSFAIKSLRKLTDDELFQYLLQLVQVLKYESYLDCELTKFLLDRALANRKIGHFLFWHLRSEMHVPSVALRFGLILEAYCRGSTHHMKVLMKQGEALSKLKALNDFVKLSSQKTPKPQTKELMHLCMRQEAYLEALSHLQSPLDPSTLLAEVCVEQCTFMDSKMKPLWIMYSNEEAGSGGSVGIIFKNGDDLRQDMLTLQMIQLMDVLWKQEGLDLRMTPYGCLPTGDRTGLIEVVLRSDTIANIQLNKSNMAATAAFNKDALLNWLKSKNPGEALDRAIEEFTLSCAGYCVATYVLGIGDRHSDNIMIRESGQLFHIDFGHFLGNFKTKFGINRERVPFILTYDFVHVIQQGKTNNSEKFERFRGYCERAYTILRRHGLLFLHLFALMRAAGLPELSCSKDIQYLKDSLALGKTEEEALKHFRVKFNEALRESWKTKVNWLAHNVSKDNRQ

[17] = species: Homo sapiens; test: Inhibition of PI3K in human BT549 cells assessed as decrease in Akt phosphorylation at Ser473 by Western blot analysis; format: cell-based
[18] = tested on: BT-549; test: Cell cycle arrest in human BT549 cells assessed as accumulation of cells at G2 phase at 2.5 uM after 24 hrs by propidium iodide staining-based flow cytometric analysis (reference value: 18.96%); format: functional
[19] = tested on: BT-549; test: Induction of apoptosis in human BT549 cells assessed as late apoptotic cells at 5 uM by Annexin V-FITC/propidium iodide staining-based flow cytometric analysis relative to control; format: functional
[20] = molecular target: Phosphatidylinositol 4,5-bisphosphate 3-kinase catalytic subunit alpha isoform (Homo sapiens, UniProt P42336); test: Inhibition of PI3K p110alpha (unknown origin) using PIP2 as substrate by ELISA
[21] = tested on: BT-549; test: Inhibition of colony formation in human BT549 cells assessed as colony formation rate at 2.5 uM after 2 weeks by crystal violet staining-based assay relative to control; format: functional; design: scale not given: the % may be the effect or the level left
[22] = tested on: BT-549; test: Cell cycle arrest in human BT549 cells assessed as accumulation of cells at G1 phase after 24 hrs by propidium iodide staining-based flow cytometric analysis; format: functional
[23] = molecular target: Phosphatidylinositol 4,5-bisphosphate 3-kinase catalytic subunit gamma isoform (Homo sapiens, UniProt P48736); test: Inhibition of PI3K p110gamma (unknown origin) using PIP2 as substrate by ELISA
[24] = tested on: MCF7; test: Cytotoxicity against human MCF7 cells after 72 hrs by SRB assay; format: functional, cell-based; conditions: MCF7, 72 h
[25] = tested on: BT-549; test: Cytotoxicity against human BT549 cells after 72 hrs by SRB assay; format: functional, cell-based; conditions: BT-549, 72 h
[26] = tested on: BT-549; test: Cell cycle arrest in human BT549 cells assessed as accumulation of cells at G1 phase at 2.5 uM after 24 hrs by propidium iodide staining-based flow cytometric analysis (reference value: 55.93%); format: functional
[27] = tested on: BT-549; test: Cell cycle arrest in human BT549 cells assessed as accumulation of cells at G2 phase at 5 uM after 24 hrs by propidium iodide staining-based flow cytometric analysis (reference value: 18.96%); format: functional
[28] = tested on: BT-549; test: Cell cycle arrest in human BT549 cells assessed as accumulation of cells at S phase at 2.5 uM after 24 hrs by propidium iodide staining-based flow cytometric analysis (reference value: 25.10%); format: functional
[29] = molecular target: Phosphatidylinositol 4,5-bisphosphate 3-kinase catalytic subunit beta isoform (Homo sapiens, UniProt P42338); test: Inhibition of PI3K p110beta (unknown origin) using PIP2 as substrate by ELISA
[30] = tested on: BT-549; test: Induction of apoptosis in human BT549 cells assessed as nuclear fragmentation at 1 to 5 uM after 24 hrs by DAPI staining-based fluorescence microscopic analysis; format: functional, cell-based
[31] = tested on: SK-HEP1; test: Cytotoxicity against human SKHEP1 cells after 72 hrs by SRB assay; format: functional, cell-based; conditions: SK-HEP1, 72 h
[32] = tested on: BT-549; test: Induction of apoptosis in human BT549 cells assessed as late apoptotic cells at 2.5 uM by Annexin V-FITC/propidium iodide staining-based flow cytometric analysis relative to control; format: functional

Chain of Phosphatidylinositol 4,5-bisphosphate 3-kinase catalytic subunit alpha isoform (P42336 whole entry, canonical isoform): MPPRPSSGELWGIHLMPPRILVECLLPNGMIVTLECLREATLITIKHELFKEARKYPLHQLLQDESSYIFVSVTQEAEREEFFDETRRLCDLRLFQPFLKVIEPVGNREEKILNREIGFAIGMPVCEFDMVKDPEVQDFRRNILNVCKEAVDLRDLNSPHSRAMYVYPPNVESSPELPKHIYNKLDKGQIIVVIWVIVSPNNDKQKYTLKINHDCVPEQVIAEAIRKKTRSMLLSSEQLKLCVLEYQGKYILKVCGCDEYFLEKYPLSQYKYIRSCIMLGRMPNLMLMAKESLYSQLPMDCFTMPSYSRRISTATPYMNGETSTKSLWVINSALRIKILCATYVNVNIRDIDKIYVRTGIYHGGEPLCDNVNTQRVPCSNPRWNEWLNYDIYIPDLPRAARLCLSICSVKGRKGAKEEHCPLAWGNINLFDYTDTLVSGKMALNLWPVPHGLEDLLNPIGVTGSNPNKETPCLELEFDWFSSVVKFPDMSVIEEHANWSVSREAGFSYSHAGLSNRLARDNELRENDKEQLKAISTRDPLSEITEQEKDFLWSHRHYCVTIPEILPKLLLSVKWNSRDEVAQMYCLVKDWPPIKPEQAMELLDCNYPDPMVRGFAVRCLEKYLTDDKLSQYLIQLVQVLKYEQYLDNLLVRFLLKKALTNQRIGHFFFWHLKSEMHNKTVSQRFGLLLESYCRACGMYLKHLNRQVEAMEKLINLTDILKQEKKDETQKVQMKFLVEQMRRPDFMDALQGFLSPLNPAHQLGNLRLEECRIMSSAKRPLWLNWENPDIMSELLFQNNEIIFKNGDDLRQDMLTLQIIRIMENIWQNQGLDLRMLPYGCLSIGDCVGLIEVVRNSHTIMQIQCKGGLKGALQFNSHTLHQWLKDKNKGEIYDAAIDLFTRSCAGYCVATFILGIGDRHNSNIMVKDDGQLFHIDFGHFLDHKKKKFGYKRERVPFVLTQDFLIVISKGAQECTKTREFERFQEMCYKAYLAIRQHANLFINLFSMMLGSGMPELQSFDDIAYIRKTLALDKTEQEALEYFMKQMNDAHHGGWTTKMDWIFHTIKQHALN
Chain of Phosphatidylinositol 4,5-bisphosphate 3-kinase catalytic subunit beta isoform (P42338 whole entry, the tested form may be a part, canonical isoform): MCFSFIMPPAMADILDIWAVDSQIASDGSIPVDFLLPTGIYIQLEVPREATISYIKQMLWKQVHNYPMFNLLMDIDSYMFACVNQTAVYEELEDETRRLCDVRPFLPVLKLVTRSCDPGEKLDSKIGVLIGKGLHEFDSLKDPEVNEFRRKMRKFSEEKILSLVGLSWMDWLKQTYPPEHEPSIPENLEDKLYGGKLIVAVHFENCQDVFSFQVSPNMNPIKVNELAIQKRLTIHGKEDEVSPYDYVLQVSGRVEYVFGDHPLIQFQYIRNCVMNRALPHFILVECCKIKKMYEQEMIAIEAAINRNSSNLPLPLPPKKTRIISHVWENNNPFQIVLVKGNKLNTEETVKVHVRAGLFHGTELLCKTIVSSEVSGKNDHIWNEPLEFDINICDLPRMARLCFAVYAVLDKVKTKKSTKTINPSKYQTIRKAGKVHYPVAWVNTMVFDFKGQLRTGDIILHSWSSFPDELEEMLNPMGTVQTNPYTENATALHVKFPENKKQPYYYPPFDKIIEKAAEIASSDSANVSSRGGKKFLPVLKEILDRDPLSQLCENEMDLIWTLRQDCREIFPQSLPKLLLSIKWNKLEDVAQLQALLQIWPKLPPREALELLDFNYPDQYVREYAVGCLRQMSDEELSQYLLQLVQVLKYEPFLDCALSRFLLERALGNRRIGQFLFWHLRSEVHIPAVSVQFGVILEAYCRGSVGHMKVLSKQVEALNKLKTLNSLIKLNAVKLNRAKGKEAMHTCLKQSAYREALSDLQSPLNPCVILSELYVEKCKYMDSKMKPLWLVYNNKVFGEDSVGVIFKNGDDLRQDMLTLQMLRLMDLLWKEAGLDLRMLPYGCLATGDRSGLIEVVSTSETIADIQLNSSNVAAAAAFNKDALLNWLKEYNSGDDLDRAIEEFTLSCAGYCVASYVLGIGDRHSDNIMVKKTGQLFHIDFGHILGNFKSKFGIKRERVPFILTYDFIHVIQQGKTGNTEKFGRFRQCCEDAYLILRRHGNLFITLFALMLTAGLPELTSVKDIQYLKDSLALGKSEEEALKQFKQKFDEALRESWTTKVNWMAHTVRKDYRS
Chain of Phosphatidylinositol 4,5-bisphosphate 3-kinase catalytic subunit gamma isoform (P48736 whole entry, canonical isoform): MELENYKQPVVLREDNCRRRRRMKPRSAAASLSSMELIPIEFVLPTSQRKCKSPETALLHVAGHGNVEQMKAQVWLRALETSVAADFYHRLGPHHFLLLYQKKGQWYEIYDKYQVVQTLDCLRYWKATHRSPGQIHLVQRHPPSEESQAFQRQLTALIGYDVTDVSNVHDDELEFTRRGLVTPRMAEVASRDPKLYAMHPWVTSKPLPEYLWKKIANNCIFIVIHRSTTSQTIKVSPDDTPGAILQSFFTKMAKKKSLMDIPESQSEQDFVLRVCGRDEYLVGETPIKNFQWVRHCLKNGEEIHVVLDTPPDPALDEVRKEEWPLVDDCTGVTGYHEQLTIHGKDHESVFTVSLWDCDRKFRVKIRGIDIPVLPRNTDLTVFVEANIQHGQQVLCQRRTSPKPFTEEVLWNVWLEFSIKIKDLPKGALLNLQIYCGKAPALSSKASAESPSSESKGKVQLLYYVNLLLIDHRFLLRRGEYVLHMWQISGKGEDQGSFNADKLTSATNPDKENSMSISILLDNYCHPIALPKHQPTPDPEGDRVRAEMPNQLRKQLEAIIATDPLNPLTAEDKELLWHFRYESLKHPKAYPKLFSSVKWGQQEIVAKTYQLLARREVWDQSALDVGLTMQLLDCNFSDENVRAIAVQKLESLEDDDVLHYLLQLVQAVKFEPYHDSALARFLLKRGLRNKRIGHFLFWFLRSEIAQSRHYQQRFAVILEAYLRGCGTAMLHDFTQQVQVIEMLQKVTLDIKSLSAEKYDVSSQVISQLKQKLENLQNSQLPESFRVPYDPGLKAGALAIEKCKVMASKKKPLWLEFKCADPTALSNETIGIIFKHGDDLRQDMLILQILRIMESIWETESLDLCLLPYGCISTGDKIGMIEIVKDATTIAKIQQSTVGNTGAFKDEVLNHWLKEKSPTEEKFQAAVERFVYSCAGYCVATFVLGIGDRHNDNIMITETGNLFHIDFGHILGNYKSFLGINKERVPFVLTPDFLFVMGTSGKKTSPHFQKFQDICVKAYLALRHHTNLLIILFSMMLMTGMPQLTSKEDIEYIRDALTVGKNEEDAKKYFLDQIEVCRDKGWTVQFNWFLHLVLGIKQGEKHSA

pIC50 [16]: 5.06 | pIC50 [20]: 6.50 | pIC50 [23]: 5.45 | pIC50 [29]: 5.03
SMILES: CCS(=O)(=O)Nc1cc(-c2ccc3ncnc(Nc4ccc(F)c(Cl)c4)c3c2)cnc1OC
inhibition [1]: Dose-dependent effect | Activity [2]: 24.16% | pIC50 [3]: 5.39 | Activity [4]: 6.52% | Activity [5]: 30.52% | Activity [6]: 56.69% | Activity [7]: 0.92% | Activity [8]: 69.31% | Activity [9]: 80.7% | Activity [10]: 25.7% | pIC50 [11]: 5.08 | Activity [12]: 54.71% | pIC50 [13]: 5.25 | Activity [14]: Active | Activity [15]: 1.79% | inhibition [17]: Dose-dependent effect | Activity [18]: 17.77% | Activity [19]: 2.27% | Activity [21]: 55.6% | Activity [22]: Dose-dependent effect | pIC50 [24]: 5.25 | pIC50 [25]: 5.99 | Activity [26]: 75.36% | Activity [27]: 18.37% | Activity [28]: 6.86% | Activity [30]: Active | pIC50 [31]: 5.21 | Activity [32]: 2.05%
